Data as given in US20200148617A1, “GEMCABENE, PHARMACEUTICALLY ACCEPTABLE SALTS THEREOF, COMPOSITIONS THEREOF AND METHODS OF USE THEREFOR” (GEMPHIRE THERAPEUTICS INC., priority 2017, published 2020).

Test system: not listed separately
Test: Particle size distribution by laser light diffraction (Malvern Mastersizer 2000, Fraunhofer)
Format: physicochemical
Conditions: cumulative volume
Experimental: In some embodiments, the particle size distribution and the PSD90 of a compound of the invention is determined by the laser light diffraction particle size distribution analysis. The particle size distribution is determined in accordance with the Fraunhofer light diffraction method. In this method, a coherent laser beam passes through the sample and the resulting diffraction pattern is focused on a multi-element detector. Since the diffraction pattern depends, among other parameters, on particle size, the particle size distribution can be calculated based on the measured diffraction pattern of the sample. The method is described in more detail in USP38-NF33, <429> Light Diffraction Measurement of Particle Size.
The particle size distribution was determined in accordance with the Fraunhofer light diffraction method. A coherent laser beam was passed through the sample and the resulting diffraction pattern was focused on a multi-element detector. Because the diffraction pattern depends, among other parameters, on particle size, the particle size distribution (PSD) was calculated based on the measured diffraction patter of the sample.
Stock dispersion solution was prepared by adding a few drops of the dispersing aid (e.g., 1% w/w solution of a detergent in white spirit such as Span 80, Fluka (85548-250 ml)) to an appropriate amount of substance and mixed carefully. The dispersion was then slowly diluted to a final volume of about 10 ml while vortexing. The suspension cell of the instrument (Malvern Mastersizer 2000 equipped with Hydro 2000S sample dispersion unit) was filled with dispersion medium and a background measurement was taken. […] The cumulative volume distribution was determined in accordance with the instrument's instruction manual.
The PSD10, PSD50, and PSD90 values were determined from the cumulative volume distribution of each measurement. Values smaller than 10 μm were reported to one decimal place. Results larger than 10 μm were reported as single digit values. Sample parameters used in analysis are shown below: […]

Which “D10 (PSD10)” value does the source give for CC(C)(CCCCOCCCCC(C)(C)C(=O)[O-])C(=O)[O-].[Ca+2] [Sample 1] here?
Its value is 6.3 μm.

What about the “D50 (PSD50)” value of the same molecule?
The value was 50.4 μm.

Which results are given for CC(C)(CCCCOCCCCC(C)(C)C(=O)[O-])C(=O)[O-].[Ca+2] [Sample 2]?
D10 (PSD10): 4.8 μm; D50 (PSD50): 22.9 μm

Which “D10 (PSD10)” value does the source give for CC(C)(CCCCOCCCCC(C)(C)C(=O)[O-])C(=O)[O-].[Ca+2] [Sample 3] here?
Its value is 5.3 μm.

What about the “D50 (PSD50)” value of the same molecule?
Its value is 32.2 μm.

For CC(C)(CCCCOCCCCC(C)(C)C(=O)[O-])C(=O)[O-].[Ca+2] [Sample 4], which “D10 (PSD10)” value is on record?
Its value is 5.8 μm.

What about the “D50 (PSD50)” value of the same molecule?
The value was 22 μm.

And the “D90 (PSD90)” value?
Its value is 52 μm.

Which “D10 (PSD10)” value does the source give for CC(C)(CCCCOCCCCC(C)(C)C(=O)[O-])C(=O)[O-].[Ca+2] [Sample 5] here?
Its value is 7.8 μm.

And the “D50 (PSD50)” value?
Its value is 101 μm.

What about the “D90 (PSD90)” value of the same molecule?
Its value is 431 μm.

Which “D10 (PSD10)” value does the source give for CC(C)(CCCCOCCCCC(C)(C)C(=O)[O-])C(=O)[O-].[Ca+2] [Sample 6] here?
The value was 7.8 μm.

What about the “D50 (PSD50)” value of the same molecule?
Its value is 25 μm.

And the “D90 (PSD90)” value?
The value was 52 μm.

Which “D10 (PSD10)” value does the source give for CC(C)(CCCCOCCCCC(C)(C)C(=O)[O-])C(=O)[O-].[Ca+2] [Sample 7] here?
The value was 5.4 μm.

And the “D50 (PSD50)” value?
Its value is 20 μm.

And the “D90 (PSD90)” value?
Its value is 62 μm.

With CC(C)(CCCCOCCCCC(C)(C)C(=O)[O-])C(=O)[O-].[Ca+2] [Sample 8] as the molecule, how does the “D10 (PSD10)” value read?
The value was 8.2 μm.

And the “D50 (PSD50)” value?
The value was 24 μm.

And the “D90 (PSD90)” value?
The value was 48 μm.

For CC(C)(CCCCOCCCCC(C)(C)C(=O)[O-])C(=O)[O-].[Ca+2] [Sample 9], which “D10 (PSD10)” value is on record?
Its value is 17 μm.

What about the “D50 (PSD50)” value of the same molecule?
The value was 386 μm.

And the “D90 (PSD90)” value?
Its value is 996 μm.

For CC(C)(CCCCOCCCCC(C)(C)C(=O)[O-])C(=O)[O-].[Ca+2] [Sample 10], which “D90 (PSD90)” value is on record?
Its value is 55 μm.

Which “D90 (PSD90)” value does the source give for CC(C)(CCCCOCCCCC(C)(C)C(=O)[O-])C(=O)[O-].[Ca+2] [Sample 11] here?
Its value is 47 μm.

Test system: hepatic mRNA expression in STAM™ mice
Test: Murine STAM model of NASH-HCC: hepatic gene expression by quantitative RT-PCR
Format: in vivo, mouse
Conditions: 10 mg/kg; normalized to Vehicle in Normal; mean ± SD, n = 7
Experimental: A study was performed to evaluate the efficacy of gemcabene calcium salt hydrate Crystal Form 1 having a PSD90 of 52 μm as measured by laser light diffraction, in treating non-alcoholic steatosis hepatitis (NASH) in the murine STAM™ model of NASH-HCC.
Briefly, two-day old neonatal C57BL/6 male mice were administered low-dose streptozotocin (STZ), and were subsequently fed a HFC diet from 4 weeks of age. In this model, the mice typically develop liver steatosis and diabetes, reaching steatohepatitis within 3 weeks, followed by cirrhosis within 8 weeks, and carcinoma within 16 weeks. In the current study, mice were administered daily oral gemcabene calcium salt hydrate Crystal Form 1 starting at week 6 of age and were sacrificed at week 9. Telmisartan (with antisteatotic, anti-inflammatory and antifibrotic effects in STAM™ mice) was used as a positive comparator. A baseline reference group was administered vehicle at day 2 of age, and from week 6 of age was vehicle-treated and chow-fed. Five STAM™ groups were streptozocin-treated at day 2 of age and fed a HFC-diet beginning with week 4 of age. These STAM™ groups were orally administered from week 6 one of the following: water-vehicle, gemcabene calcium salt hydrate Crystal Form 1 at 30, 100 and 300 mg/kg daily, or telmisartan ([…]®) 10 mg/kg daily. Telmisartan ([…]®) was purchased from Boehringer Ingelheim GmbH (Germany) and dissolved in pure water. All groups were sacrificed at week 9. Vehicle, gemcabene calcium salt hydrate Crystal Form 1, or telmisartan were administered by oral gavage once daily.
Various gene expression markers of liver metabolism were evaluated by Real-Time PCR (RT-PCR) in all mouse groups. Total RNA was extracted from liver samples using RNAiso (Takara Bio, Japan) according to the manufacturer's instructions. One μg of RNA was reverse-transcribed using a reaction mixture containing 4.4 mM MgCl2 (F. Hoffmann-La Roche, Switzerland), 40 U RNase inhibitor (Toyobo, Japan), 0.5 mM dNTP (Promega, USA), 6.28 μM random hexamer (Promega), 5× first strand buffer (Promega), 10 mM dithiothreitol (Invitrogen, USA) and 200 U MMLV-RT (Invitrogen) in a final volume of 20 μL. The reaction was carried out for 1 hour at 37° C., followed by 5 minutes at 99° C. Real-time PCR was performed using real-time PCR DICE and SYBR premix Taq (Takara Bio). To calculate the relative mRNA expression level, the expression of each gene was normalized to that of reference gene 36B4 (gene symbol: Rplp0). Information of PCR-primer sets is described in Tables 20A-20C. Statistical analyses were performed using the Bonferroni Multiple Comparison Test on GraphPad Prism 6 (GraphPad Software Inc., USA). P values <0.05 were considered statistically significant. Results are expressed as mean±SD.
In order to calculate the relative mRNA expression level, the expression of each gene was normalized to that of the reference gene 36B4 (gene symbol: Rplp0). The gene expression levels were measured by quantitative RT-PCR. Results were normalized with values for the vehicle-treated normal group. […] Gemcabene calcium salt hydrate Crystal Form 1 (PSD90=52 μm) modulated the mRNA expression of many hepatic genes that play a significant role in the liver homeostasis and injury.

Which results are given for CCCc1nc2c(C)cc(-c3nc4ccccc4n3C)cc2n1Cc1ccc(-c2ccccc2C(=O)O)cc1 [telmisartan, reference compound]?
ANGPTL3 gene expression (hepatic mRNA, RT-PCR): 0.7 ± 0.2; ANGPTL4 gene expression (hepatic mRNA, RT-PCR): 2.1 ± 0.3; CCR5 gene expression (hepatic mRNA, RT-PCR): 1.5 ± 0.3; CXCL1/KC gene expression (hepatic mRNA, RT-PCR): 0.6 ± 0.3; LPL gene expression (hepatic mRNA, RT-PCR): 2.4 ± 0.5; Sulf-2 gene expression (hepatic mRNA, RT-PCR): 3.9 ± 0.9

Same assay, conditions: telmisartan 10 mg/kg; vs vehicle-treated STAM group

Which “CRP mRNA levels” value does the source give for CCCc1nc2c(C)cc(-c3nc4ccccc4n3C)cc2n1Cc1ccc(-c2ccccc2C(=O)O)cc1 [telmisartan, reference compound] here?
The value was “No significant differences”.
